Measured values published in the supplement of paper PMC10307832.

Columns and labels:
Experiment in all cases: relative viability (nuclei count vs DMSO), 5 days (fraction); higher = more cells survive
Neratinib + Vorinostat = compound: CCOc1cc2ncc(C#N)c(Nc3ccc(OCc4ccccn4)c(Cl)c3)c2cc1NC(=O)/C=C/CN(C)C [Neratinib] + O=C(CCCCCCC(=O)Nc1ccccc1)NO [Vorinostat] (partner 1 µM)
Method in brief: (§1)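 Cells from lung cancer lines were seeded into 1536-well plates and, one day later, dosed by pin tool. Treatments were either a single drug or a fixed dose of an anchor drug with five library-drug doses (not always all listed) in √10 steps. After 5 days, nuclei were stained in a one-step fixation (final 0.05% Triton X-100, 1% formaldehyde, 1 ug/ml Hoechst) and counted on 4× images, and relative viability is the treated-to-vehicle nuclei ratio, as the median of duplicate plates.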

Neratinib + Pemetrexed = compound: CCOc1cc2ncc(C#N)c(Nc3ccc(OCc4ccccn4)c(Cl)c3)c2cc1NC(=O)/C=C/CN(C)C [Neratinib] + Nc1nc2[nH]cc(CCc3ccc(C(=O)N[C@@H](CCC(=O)O)C(=O)O)cc3)c2c(=O)[nH]1 [Pemetrexed] (partner 0.2 µM)
Method in brief: as §1

Neratinib + Dasatinib = compound: CCOc1cc2ncc(C#N)c(Nc3ccc(OCc4ccccn4)c(Cl)c3)c2cc1NC(=O)/C=C/CN(C)C [Neratinib] + Cc1nc(Nc2ncc(C(=O)Nc3c(C)cccc3Cl)s2)cc(N2CCN(CCO)CC2)n1 [Dasatinib] (partner 0.075 µM)
Method in brief: as §1

Neratinib + Palbociclib = compound: CCOc1cc2ncc(C#N)c(Nc3ccc(OCc4ccccn4)c(Cl)c3)c2cc1NC(=O)/C=C/CN(C)C [Neratinib] + CC(=O)c1c(C)c2cnc(Nc3ccc(N4CCNCC4)cn3)nc2n(C2CCCC2)c1=O [Palbociclib] (partner 0.5 µM)
Method in brief: as §1

Row | Cell Line | relative viability (Neratinib + Vorinostat; first compound 0.01 µM) | relative viability (Neratinib + Vorinostat; first compound 0.03162 µM) | relative viability (Neratinib + Vorinostat; first compound 0.1 µM) | relative viability (Neratinib + Vorinostat; first compound 0.3162 µM) | relative viability (Neratinib + Vorinostat; first compound 1 µM) | relative viability (Neratinib + Pemetrexed; first compound 0.01 µM) | relative viability (Neratinib + Pemetrexed; first compound 0.03162 µM) | relative viability (Neratinib + Pemetrexed; first compound 0.1 µM) | relative viability (Neratinib + Pemetrexed; first compound 0.3162 µM) | relative viability (Neratinib + Pemetrexed; first compound 1 µM) | relative viability (Neratinib + Dasatinib; first compound 0.01 µM) | relative viability (Neratinib + Dasatinib; first compound 0.03162 µM) | relative viability (Neratinib + Dasatinib; first compound 0.1 µM) | relative viability (Neratinib + Dasatinib; first compound 0.3162 µM) | relative viability (Neratinib + Dasatinib; first compound 1 µM) | relative viability (Neratinib + Palbociclib; first compound 0.01 µM) | relative viability (Neratinib + Palbociclib; first compound 0.03162 µM) | relative viability (Neratinib + Palbociclib; first compound 0.1 µM) | relative viability (Neratinib + Palbociclib; first compound 0.3162 µM) | relative viability (Neratinib + Palbociclib; first compound 1 µM)
1 | NCI-H460 | 0.779 | 0.984 | 0.429 | 0.716 | 0.518 | 0.062 | 0.0586 | 0.063 | 0.0641 | 0.0813 | 0.524 | 0.527 | 0.446 | 0.455 | 0.317 | 0.19 | 0.215 | 0.171 | 0.166 | 0.0933
2 | NCI-H520 | 0.759 | 0.686 |  | 0.615 | 0.509 | 0.631 | 0.735 |  | 0.505 |  | 0.212 | 0.199 | 0.228 | 0.171 | 0.147 | 0.191 | 0.242 |  | 0.213 | 0.183
3 | NCI-H522 | 1.04 | 1.01 | 0.678 | 0.718 | 0.626 | 1 | 0.943 | 0.72 | 0.673 | 0.657 | 0.94 | 0.809 | 0.818 | 0.786 | 0.664 | 1.22 | 0.759 | 0.719 | 0.733 | 0.538
4 | NCI-H647 | 0.634 | 0.595 | 0.488 | 0.401 | 0.0941 | 0.187 | 0.174 | 0.19 | 0.156 | 0.134 | 0.171 | 0.198 | 0.207 | 0.129 | 0.0912 | 0.446 | 0.545 | 0.393 | 0.344 | 0.188
5 | NCI-H650 | 0.406 | 0.399 | 0.451 | 0.403 | 0.367 | 0.98 | 1.11 | 0.932 | 0.831 | 0.773 | 0.489 | 0.493 | 0.477 | 0.416 | 0.463 | 0.372 | 0.306 | 0.293 | 0.294 | 0.371
6 | NCI-H661 | 0.866 | 0.729 | 0.583 | 0.657 | 0.445 | 0.951 | 0.947 | 0.595 | 0.704 | 0.537 | 0.924 | 0.741 | 0.5 | 0.317 | 0.338 | 0.437 | 0.388 | 0.323 | 0.318 | 0.298
7 | NCI-H838 |  | 0.794 | 0.705 | 0.735 | 0.619 | 0.247 | 0.268 | 0.242 | 0.239 | 0.243 | 0.272 | 0.255 | 0.278 | 0.287 | 0.267 | 0.223 | 0.23 | 0.216 | 0.176 | 0.176
8 | NCI-H1355 | 0.724 | 0.649 | 0.591 | 0.602 | 0.447 | 1.07 | 1.03 | 0.951 | 1.02 | 0.821 | 0.754 | 0.745 | 0.629 | 0.584 | 0.39 | 0.38 | 0.41 | 0.348 | 0.302 | 0.274
9 | NCI-H1395 | 0.846 | 0.698 |  | 0.722 | 0.595 | 1.01 | 0.982 | 0.862 | 0.877 | 0.614 | 0.406 | 0.388 | 0.458 | 0.413 | 0.318 | 0.66 | 0.709 | 0.63 | 0.58 | 0.414
10 | NCI-H1437 | 0.916 | 0.906 | 0.799 | 0.843 | 0.85 | 0.329 | 0.344 | 0.269 | 0.275 | 0.312 | 0.443 | 0.396 | 0.475 | 0.278 | 0.3 | 0.322 | 0.329 | 0.293 | 0.268 | 0.341
11 | NCI-H1650 | 0.381 | 0.615 | 0.49 | 0.419 | 0.447 | 0.381 | 0.348 | 0.31 | 0.314 | 0.325 | 0.309 | 0.31 | 0.307 | 0.304 | 0.376 | 0.349 | 0.313 | 0.3 | 0.262 | 0.276
12 | NCI-H1651 | 0.605 | 0.582 | 0.505 | 0.508 | 0.513 | 0.619 | 0.629 | 0.565 | 0.57 | 0.516 | 0.424 | 0.505 | 0.371 | 0.452 | 0.32 | 0.542 | 0.558 | 0.499 | 0.45 | 0.467
13 | NCI-H1666 | 1.14 | 1.08 | 0.901 | 0.879 | 0.87 | 0.856 | 0.867 | 0.746 | 0.652 | 0.725 | 0.842 | 0.887 | 0.701 | 0.581 | 0.586 | 0.597 | 0.711 | 0.579 | 0.625 | 0.774
14 | NCI-H1734 | 0.997 | 0.766 | 0.743 | 0.752 | 0.6 | 0.421 | 0.467 | 0.354 | 0.432 | 0.492 | 0.475 | 0.466 | 0.424 | 0.38 | 0.345 | 0.409 | 0.395 | 0.241 | 0.328 | 0.28
15 | NCI-H1755 | 0.828 | 0.695 | 0.658 | 0.916 | 0.794 | 0.496 | 0.496 | 0.379 | 0.563 | 0.417 | 0.478 | 0.466 | 0.379 | 0.436 | 0.319 | 0.457 | 0.463 | 0.33 | 0.456 | 0.432
16 | NCI-H1793 | 0.765 | 0.849 | 0.473 | 0.487 | 0.355 | 0.92 | 0.778 | 0.637 | 0.666 | 0.414 | 0.43 | 0.457 | 0.321 | 0.34 | 0.264 | 0.257 | 0.276 | 0.239 | 0.241 | 0.23
